Like-named read-outs stand apart in the source and are kept apart here.
Experiment: Phase I trial of oral PCLX-001: plasma pharmacokinetics, noncompartmental analysis (Phoenix WinNonlin 8.3)
Assay type: in vivo, human
Details: for AUC(0-t): read-out: AUClast; for Tmax: read-out: Tmax
Description: The clinical trial is entitled “Phase I Trial of PCLX-001 in B-cell Non-Hodgkin Lymphoma and Advanced Solid Malignancies” and registered at clinicaltrials.gov as NCT04836195. It is a phase I dose-escalation study of oral PCLX-001, conducted in a multicenter, non-randomized, open-label, non-controlled design. The study is comprised of two parts: Part A (single-agent dose escalation) and Part B (single-agent expansion cohorts).
Patients are to receive daily oral PCLX-001 on 28-day cycles, beginning with a starting dose of 20 mg.
[…] After dosing, the blood samples (volumes 3 mL) were serially collected into heparinized tubes from a right forearm butterfly cannula. All blood fluid specimens were frozen and later assayed using a validated UHPLC-MS detection method.
Noncompartmental pharmacokinetic analysis was performed using Phoenix WinNonlin 8.3 using trapezoidal rule and linear up log down methodology. WinNonlin was allowed to pick optimal terminal phases.
Nonparametric superposition was performed using Phoenix WinNonlin Nonparametric Superposition to predict steady state data based upon Day 1 data for each patient. It utilized the 8- and 24-hour time points for estimation of terminal phase for the purposes of this exercise. We simulated 20 mg daily oral dosing and simulations were conducted out to steady state. Results are show in FIGS. 5, 6, and 7.
In the non-compartmental analysis, Phoenix WinNonlin 8.3 trapezoidal rule was used, with linear up log down method. This allowed WinNonlin to pick optimal terminal phase (WinNonlin will accept Rsq adjusted to >0.7). Additional analysis to assess adequate fie included visual inspection of data, and AUCextrap should be <15%.
Phoenix WinNonlin 8.3 trapezoidal rule. Used linear up log down method. Allowed WinNonlin to pick optimal terminal phase (WinNonlin will accept Rsq adjusted >0.7).
Other analysis to assess adequate fit. Visual inspection of data. AUCextrap should be <15%.

[1] = Table 1A, Patient 115-002-001 (Patient 1), Day 1, 20 mg oral daily
[2] = human, plasma, oral, 20 mg, Table 4, Mean, not on Pantoprazole, 20 mg, N 3, Day 1
[3] = human, plasma, oral, 20 mg, Table 4, Mean, not on Pantoprazole, 20 mg, N 3, Day 15
[4] = human, plasma, oral, 40 mg, Table 4, not on Pantoprazole, 40 mg, N 1, Day 1
[5] = human, plasma, oral, 40 mg, Table 4, not on Pantoprazole, 40 mg, N 1, Day 15
[6] = human, plasma, oral, 40 mg, Table 5, on Pantoprazole, 40 mg, N 1, Day 1
[7] = human, plasma, oral, 40 mg, Table 5, on Pantoprazole, 40 mg, N 1, Day 15
[8] = human, plasma, oral, 70 mg, Table 4, not on Pantoprazole, 70 mg, N 1, Day 1

Cc1c(NS(=O)(=O)c2c(Cl)cc(-c3ccnc(N4CCNCC4)c3)cc2Cl)c(CC(C)C)nn1C [PCLX-001, 2,6-dichloro-N-(3-isobutyl-1,5-dimethyl-1H-pyrazol-4-yl)-4-(2-(piperazin-1-yl)pyridin-4-yl)benzene sulfonamide]
systemic accumulation of drug (Patient 1, by day 15, 20 mg oral daily): without systemic accumulation of drug
drug accumulation (Patient 2, 20 mg oral daily): No significant drug accumulation
AUCextrep [1]: 15.9%
half-life [1]: 8.5 h
AUCextrep (Table 1A, Patient 115-002-001 (Patient 1), Day 15, 20 mg oral daily): 21.9%
AUCextrep (Table 1A, Patient 115-002-002 (Patient 2), Day 15, 20 mg oral daily): 20.4%
AUCextrep (Table 1A, Patient 115-002-004 (Patient 3), Day 1, 20 mg oral daily): 5.41%
AUCextrep (Table 1A, Patient 115-002-004 (Patient 3), Day 15, 20 mg oral daily): 11.3%
AUCextrap (Table 6, Patient 115-002-001, Day 1, 20 mg QD oral, Pantoprazole No): 15.3%
AUCextrap (Table 6, Patient 115-002-001, Day 15, 20 mg QD oral, Pantoprazole No): 23.7%
AUCextrap (Table 6, Patient 115-002-002, Day 15, 20 mg QD oral, Pantoprazole No): 17.5%
AUCextrap (Table 6, Patient 115-002-004, Day 1, 20 mg QD oral, Pantoprazole No): 5.1%
AUCextrap (Table 6, Patient 115-002-004, Day 15, 20 mg QD oral, Pantoprazole No): 10.0%
AUCextrap (Table 7, Patient 115-002-005, Day 1, 40 mg QD oral, Pantoprazole Yes): 9.5%
AUCextrap (Table 7, Patient 115-002-005, Day 15, 40 mg QD oral, Pantoprazole Yes): 5.3%
AUCextrap (Table 7, Patient 115-009-001, Day 1, 40 mg QD oral, Pantoprazole No): 20.1%
AUCextrap (Table 7, Patient 115-009-001, Day 15, 40 mg QD oral, Pantoprazole No): 24.9%
AUCextrap (Table 8, Patient 115-024-001, Day 1, 70 mg QD oral, Pantoprazole No): 16.8%
AUCextrap (Table 9, Patient 115-002-009, Day 1, 100 mg QD oral, Pantoprazole No): 4.4%
AUCextrap (Table 9, Patient 115-002-010, Day 1, 100 mg QD oral, Pantoprazole No): 10.9%
AUCextrap (Table 9, Patient 115-002-011, Day 1, 100 mg QD oral, Pantoprazole No): 18.4%
AUCextrap (Table 9, Patient 115-002-012, Day 15, 100 mg QD oral, Pantoprazole No): 12.2%
AUCextrap (Table 10, Patient 115-002-006, Day 1, Dose 140 mg QD oral, Concomitant Pantoprazole No): 5.48%
AUCextrap (Table 10, Patient 115-002-006, Day 15, Dose 140 mg QD oral, Concomitant Pantoprazole No): 22.7%
AUCextrap (Table 10, Patient 115-024-005, Day 1, Dose 140 mg QD oral, Concomitant Pantoprazole Yes): 12.1%
AUCextrap (Table 10, Patient 115-024-005, Day 15, Dose 140 mg QD oral, Concomitant Pantoprazole Yes): 37.9%
AUCextrap (Table 10, Patient 115-024-013, Day 1, Dose 140 mg QD oral, Concomitant Pantoprazole Yes): 12.5%
AUCextrap (Table 10, Patient 115-024-013, Day 15, Dose 140 mg QD oral, Concomitant Pantoprazole Yes): 39.9%
dose proportionality of systemic exposure (dose range of 20 to 140 mg): dose proportional
Cmax (human, plasma, oral, 20 mg, Table 3, human (patient 1), 20 mg/75 kg = 0.27 mg/kg): 479 ng/mL
half-life (human, plasma, oral, 20 mg, Table 3, human (patient 1), 20 mg/75 kg = 0.27 mg/kg, read-out: Terminal elimination half-life (converted)): 16 h
Cmax (human, plasma, oral, 20 mg, Table 4, Mean (CV), not on Pantoprazole, 20 mg, N 3, Day 1): 276 ng/mL
half-life (human, plasma, oral, 20 mg, Table 4, Mean (CV), not on Pantoprazole, 20 mg, N 3, Day 1, read-out: t½ (converted)): 6.93 h
Cmax (human, plasma, oral, 20 mg, Table 4, Mean (CV), not on Pantoprazole, 20 mg, N 3, Day 15): 359 ng/mL
half-life (human, plasma, oral, 20 mg, Table 4, Mean (CV), not on Pantoprazole, 20 mg, N 3, Day 15, read-out: t½ (converted)): 8.93 h
AUC(0-inf) [2]: 1960 ng·h/mL
AUC(0-t) [2]: 1600 ng·h/mL
AUC(0-inf) [3]: 2720 ng·h/mL
AUC(0-t) [3]: 2220 ng·h/mL
Tmax (human, plasma, oral, 20 mg, Table 4, median (min, max), not on Pantoprazole, 20 mg, N 3, Day 1): 2 h
Tmax (human, plasma, oral, 20 mg, Table 4, median (min, max), not on Pantoprazole, 20 mg, N 3, Day 15): 1 h
AUC(0-inf) [4]: 12600 ng·h/mL
Cmax [4]: 1670 ng/mL
AUC(0-t) [4]: 10100 ng·h/mL
Tmax [4]: 1 h
half-life (human, plasma, oral, 40 mg, Table 4, not on Pantoprazole, 40 mg, N 1, Day 1, read-out: t½ (converted)): 10.8 h
AUC(0-inf) [5]: 18300 ng·h/mL
Cmax [5]: 1480 ng/mL
AUC(0-t) [5]: 13700 ng·h/mL
Tmax [5]: 2 h
half-life (human, plasma, oral, 40 mg, Table 4, not on Pantoprazole, 40 mg, N 1, Day 15, read-out: t½ (converted)): 11.9 h
AUC(0-inf) [6]: 4900 ng·h/mL
Cmax [6]: 868 ng/mL
AUC(0-t) [6]: 4430 ng·h/mL
Tmax [6]: 0.5 h
half-life (human, plasma, oral, 40 mg, Table 5, on Pantoprazole, 40 mg, N 1, Day 1, read-out: t½ (converted)): 7.5 h
AUC(0-inf) [7]: 7060 ng·h/mL
Cmax [7]: 802 ng/mL
AUC(0-t) [7]: 6680 ng·h/mL
Tmax [7]: 2 h
half-life (human, plasma, oral, 40 mg, Table 5, on Pantoprazole, 40 mg, N 1, Day 15, read-out: t½ (converted)): 5.54 h
AUC(0-inf) [8]: 11300 ng·h/mL
Cmax [8]: 1430 ng/mL
AUC(0-t) [8]: 9400 ng·h/mL
Tmax [8]: 1 h
half-life (human, plasma, oral, 70 mg, Table 4, not on Pantoprazole, 70 mg, N 1, Day 1, read-out: t½ (converted)): 9.44 h
